# The supplement of paper PMC10307832
# Legend:
# Test in all cases: relative viability (nuclei count vs DMSO), 5 days (fraction); higher = more cells survive
# Cediranib + Vorinostat = compound: COc1cc2c(Oc3ccc4[nH]c(C)cc4c3F)ncnc2cc1OCCCN1CCCC1 [Cediranib] + O=C(CCCCCCC(=O)Nc1ccccc1)NO [Vorinostat] (partner 1 µM)
# In short: (§1)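 One day after seeding in 1536-well plates, lung cancer cell lines were dosed by pin tool. Dosing was either single-drug or a fixed anchor-drug dose plus five library-drug doses (not always all listed) in √10 steps. After 5 days, nuclei were stained in one fix-and-stain step and counted on 4× images, and relative viability is the nuclei count of treated wells over that of vehicle wells, given as the median of duplicate plates.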
# [1] = compound: O=C(C[C@H]1NCCC[C@@H]1O)Cn1cnc2cc(Br)c(Cl)cc2c1=O (racemic) [Halofuginone] + CCNC(=O)c1noc(-c2cc(C(C)C)c(O)cc2O)c1-c1ccc(CN2CCOCC2)cc1 [Luminespib] (partner 0.01 µM)
# In short: as §1
# Cediranib + Linsitinib = compound: COc1cc2c(Oc3ccc4[nH]c(C)cc4c3F)ncnc2cc1OCCCN1CCCC1 [Cediranib] + C[C@]1(O)C[C@@H](c2nc(-c3ccc4ccc(-c5ccccc5)nc4c3)c3c(N)nccn32)C1 [Linsitinib] (partner 1 µM)
# In short: as §1
# Cediranib + Tozasertib = compound: COc1cc2c(Oc3ccc4[nH]c(C)cc4c3F)ncnc2cc1OCCCN1CCCC1 [Cediranib] + Cc1cc(Nc2cc(N3CCN(C)CC3)nc(Sc3ccc(NC(=O)C4CC4)cc3)n2)n[nH]1 [Tozasertib] (partner 0.1 µM)
# In short: as §1
Cell Line,relative viability (Cediranib + Vorinostat; first compound 0.04 µM),relative viability (Cediranib + Vorinostat; first compound 0.1265 µM),relative viability (Cediranib + Vorinostat; first compound 0.4 µM),relative viability (Cediranib + Vorinostat; first compound 1.265 µM),relative viability (Cediranib + Vorinostat; first compound 4 µM),relative viability ([1]; first compound 0.001 µM),relative viability ([1]; first compound 0.003162 µM),relative viability ([1]; first compound 0.01 µM),relative viability ([1]; first compound 0.03162 µM),relative viability ([1]; first compound 0.1 µM),relative viability (Cediranib + Linsitinib; first compound 0.04 µM),relative viability (Cediranib + Linsitinib; first compound 0.1265 µM),relative viability (Cediranib + Linsitinib; first compound 0.4 µM),relative viability (Cediranib + Linsitinib; first compound 1.265 µM),relative viability (Cediranib + Linsitinib; first compound 4 µM),relative viability (Cediranib + Tozasertib; first compound 0.04 µM),relative viability (Cediranib + Tozasertib; first compound 0.1265 µM),relative viability (Cediranib + Tozasertib; first compound 0.4 µM),relative viability (Cediranib + Tozasertib; first compound 1.265 µM),relative viability (Cediranib + Tozasertib; first compound 4 µM)
NCI-H2023,0.739,0.4,0.545,0.723,0.9,0.849,0.699,0.529,0.148,0.0557,0.656,0.641,0.638,0.588,0.765,0.389,0.353,0.267,0.433,0.303
EBC-1,,,,,,,,,,,1.14,1.05,0.882,0.609,0.802,,,,,
NCI-H1666,1.18,1.06,0.908,0.955,1.03,1.01,0.968,0.996,0.958,0.783,0.865,0.903,0.729,0.885,0.877,0.651,0.678,0.598,0.595,0.624
NCI-H1975,0.757,0.716,0.704,0.669,0.785,0.24,0.215,0.272,0.241,0.183,1.1,1.16,1,0.955,0.928,0.822,0.809,0.699,0.822,0.768
NCI-H2170,0.88,,0.793,0.718,0.962,0.681,0.631,0.557,0.758,0.603,,,,,,0.846,0.659,0.735,0.677,0.787
NCI-H1355,0.688,0.684,0.572,0.544,0.616,0.716,0.635,0.672,0.672,0.579,0.8,0.866,0.781,0.813,0.96,0.548,0.684,0.482,0.564,0.492
NCI-H1648,0.569,0.474,0.511,0.271,0.425,,,,,,,,,,,0.55,,0.449,0.502,0.442
A549,,,,,,,,,,,0.723,0.644,0.543,0.633,0.471,,,,,
SK-MES-1,1.17,1.04,0.966,1.05,1.21,0.842,0.704,0.756,0.284,0.164,1.04,1.04,1.06,0.959,1.13,0.903,0.917,0.908,0.924,0.898
EKVX,0.956,0.534,0.63,0.916,0.697,0.868,0.818,0.891,0.871,0.937,1.05,1.03,0.889,1,0.86,0.349,0.502,0.366,0.436,0.473
RERF-LC-KJ,0.805,0.226,0.62,0.674,0.761,1.47,1.27,1.22,1.25,0.887,0.909,0.862,0.869,0.871,0.907,0.598,0.535,0.469,0.544,0.464
NCI-H1755,0.808,0.65,0.683,0.763,0.762,0.469,0.41,0.392,0.565,0.445,0.997,1.06,0.967,0.972,1.03,0.54,0.481,0.532,0.595,0.547
NCI-H661,0.905,0.796,0.763,0.773,0.911,0.83,0.953,0.88,0.696,0.504,0.509,0.733,0.596,0.527,0.743,0.255,0.365,0.338,0.349,0.372
LOU-NH91,0.898,0.696,0.873,0.823,0.857,0.332,0.361,0.354,0.346,0.339,0.905,1.2,0.915,0.969,0.759,0.473,0.67,0.646,0.708,0.658
LXF-289,0.754,,0.724,0.812,0.787,0.664,0.701,0.699,0.763,0.317,0.986,0.903,0.93,0.942,0.902,0.231,0.219,0.212,0.212,0.2
HCC-44,1.14,0.94,1.07,1.1,1.11,1.09,1.15,1,1,0.155,0.7,,0.636,0.654,0.729,,,0.893,1.05,0.831
HARA,0.549,0.315,0.489,0.64,0.519,0.311,0.786,0.635,0.679,0.429,0.916,1.14,0.96,0.955,0.975,0.125,,0.107,0.118,0.123
201T,1.08,0.631,0.84,0.973,1.04,1.06,1.04,1.03,1.08,0.866,1.11,1.18,0.941,1.01,0.974,1.1,1.19,0.875,0.966,0.889
